We go through 3 compounds from US9611453B2, “Micromechanical devices for control of cell-cell interaction, and methods of use thereof” (The Regents of the University of California, priority 2007, dated 2017).

One series concerns 3T3 fibroblasts. Briefly: Viability assay of hepatocyte / 3T3 fibroblast co-culture after drug exposure, populations separated on micromechanical substrates. Format: cell-based, murine. From the text:
FIG. 13 depicts population-specific readout or selective interrogation. Hepatocytes and 3T3 fibroblasts are co-cultured to maintain hepatocyte differentiation. In (A) the drug Pyrilamine is introduced while the cells are in co-culture. By using the micromechanical substrates, the two cell populations are separated prior to viability assay, allowing the viability of each cell type to be assessed independently. […] In (B) the effect of the drug Methapyrilamine is compared when the cells are in co-culture or when the 3T3 are alone.
In another embodiment, in addition to the selective stimulation described above, one can separate a subpopulation of cells from a culture in order to assay those cells specifically; this is known as selective interrogation. One example of selective interrogation is shown in FIG. 11, where SEC cells are separated out from a culture of many cell types, and a Western Blot is performed on the purified SEC population. Another example is in FIG. 15, where hepatocytes and 3T3 fibroblasts are separated before viability assays are performed on each population.

Series [1] deals with liver sinusoidal endothelial cells (LSEC). In words: SE-1 expression of cultured LSEC (immunohistochemistry and Western blotting). In kind it is cell-based. To be noted: primary rat LSEC cultured in the presence of OV, day 3. How it is done: For example, immunohistochemistry and Western blotting were used to characterize expression of the specific EC markers RECA, SE-1, PECAM and AcLDL in isolated primary rat LSECs were cultured under the following conditions: a) on the different ECM proteins including, Collagen-I, Fibronectin, Laminin, and Collagen-IV; b) with various combinations of supportive cells, using the micromechanical reconfigurable culture method described herein to enable tracking of individual cell types, separation into pure populations for analysis, and deconvolution of contact-mediated versus soluble signals; and c) in the presence of the tyrosine phosphatase inhibitor, orthovanadate (OV).
In addition, the co-culture of LSEC with hepatocytes or fibroblast-stabilized hepatocytes induced LSEC proliferation as well as the activation of the transcription factor STAT-1.

The subject of another series is LSEC. To be noted: previously demonstrated (Fujimoto, H. et al. 2006); cited from earlier work.

With `CN(C)CCN(Cc1cccs1)c1ccccn1` [Methapyrilamine], in the series with 3T3 fibroblasts (3T3 in co-culture with hepatocytes or alone, FIG. 13B), the “sensitivity of 3T3 to the toxic effects, co-culture versus 3T3 alone” value is on record as “more sensitive to the toxic effects of the drug when alone”.

`[O]=[V]([O-])([O-])[O-]` [OV, orthovanadate]: in series [1], the SE-1 expression result is “strongly maintaining”. For the same compound, the LSEC apoptosis entry with LSEC is “inhibited LSEC apoptosis”. With `COc1ccc(CN(CCN(C)C)c2ccccn2)cc1` [Pyrilamine], in the series with 3T3 fibroblasts (drug introduced while hepatocytes and 3T3 are in co-culture, populations separated prior to viability assay, FIG. 13A), the “sensitivity to the toxic effects (viability), 3T3 versus hepatocytes” value was 3T3 are shown to be more sensitive.
